Experimental data: patent publication US6518423B1, “Benzopiperidine derivatives” (Eisai Co., Ltd., priority 1996, dated 2003)
Where two headings read alike, the source gives them in different places.

Columns and labels:
[1] = test system: Carrageenin-induced Rat Pleurisy; experiment: Effect on carrageenin-induced rat pleurisy; type: in vivo; details: total cell count in pleural exudate 5 hours after carrageenin, dose 10 mg/kg orally 30 minutes before carrageenin
Description: Effect on Carrageenin-induced Rat Pleurisy
200 μl of a carrageenin solution (10 mg/ml in physiological saline) was intrathoracically injected into rats. Five hours thereafter, blood of the animals was collected from the abdominal aorta under etherization so as to induce death from blood loss. The exudate was taken up from the thoracic cavity and weighed with a single-pan balance. Further, the exudate was diluted with Turk's solution and the cells were counted by using a counting chamber. Next the total cell count was calculated by multiplying the cell count by the exudate volume. Thus the inhibitory ratio was calculated by taking the total cell count with the administration of carrageenin as 100% and that with the administration of physiological saline as 0%. Each test compound was suspended in a 0.5% solution of methylcellulose and orally administered at a dose of 5 ml/kg 30 minutes before the injection of carrageenin.

[2] = test system: ICAM-1; experiment: Effect on the expression of ICAM-1 in human cultured umbilical cord endothelial cells (TNF-stimulated, ELISA); type: cell-based; details: 1 ng/ml TNF, expression with TNF = 100%, without TNF = 0%, read-out: IC50 (50% inhibitory concentration of ICAM-1 expression)
Description: Effect on the Expression of ICAM-1 in Human Cultured Umbilical Cord Endothelial Cells
Examination was made on the effect on the expression of ICAM-1 which is one of adhesion molecules expressed on the surfaces of cultured endothelia cells. The endotheliall cells were suspended in an MCDB131 medium containing 10% of fetal calf serum and pipetted into a 96-well culture plate (10,000 cells/well). After culturing at 37° C. in the presence of 5% of carbon dioxide for 2 days, 1 ng/ml of a tumor necrosis factor (TNF) and a test compound were added to the 96-well culture plate. After culturing at 37° C. in the presence of 5% of carbon dioxide for 4 hours and then washing with a phosphate buffer once, 0.05% of glutaraldehyde was added thereto. Six minutes thereafter, the plate was washed twice and 1 μg/ml of a mouse antihuman ICAM-1 antibody was added thereto. After allowing to stand for 1 hour, it was washed twice and a peroxidase-labeled sheep antimouse immunoglobulin antibody was added thereto. After allowing to stand for 1 hour, it was washed twice and a color developing substrate for peroxidase (o-phenylenediamine) was added thereto. After allowing to stand at room temperature for 10 minutes, a 1 N solution of sulfuric acid was added thereto. Then the absorbance at 490 nm was measured with the use of an absorptiometer for 96-well plate. The value thus obtained was employed as an indication of the ICAM-1 expression.

Structure (SMILES) | Inhibitory ratio (%) ([1]; 10 mg/kg) | IC50 ([2]; 4 hours) [nM] | inhibition in vivo at 10 mg/kg ([1]; Rattus norvegicus, po, 5 h, read-out: Inhibitory ratio (%)) [%] | IC50 ([2]; Homo sapiens, Endothelial cell, 4 h) [nM]
CC1CC(C)C2CN(Cc3ccc4c(c3)Nc3nccnc3S4)CC1C2C(C)C(=O)O (stereo not drawn) [Example 30, (+)-(anti)-(6R*,8R*)-2-[3-(10H-pyrazino[2,3-b][1,4]benzothiazin-8-ylmethyl)-6,8-dimethyl-3-azabicyclo[3.3.1]non-9-yl]propanoic acid] | 85 | 500 | – | –
O=C(O)C1C2CCC1CN(Cc1ccc3c(c1)Nc1nccnc1S3)C2 (stereo not shown) [Example 73] | – | – | 74 | 600
